Consider one compound from US11167015B2, “Arginine and its use as a T cell modulator” (INSTITUTE FOR RESEARCH IN BIOMEDICINE, priority 2016, dated 2021).

Experiment [1] relates to Naïve CD8+ OT-I T cells. Briefly: Tcm-like phenotype and IFN-γ of OT-I T cells after in vitro priming. The class given is cell-based, mouse. From the text:
FIG. 7. CD8+ T cells with increased L-arginine levels display improved anti-tumor activity in vivo. (A) Survival of activated mouse CD8+OT-I T cells (4 d) after IL-2 withdrawal. Data points represent the difference between the percentage of living T cells from cultures performed in L-Arg medium or Ctrl medium; n=11. (B) CD90.1+CD45.1/2+ and CD90.1+CD45.1+ naïve CD8+ OT-I T cells were activated for 4 days in Ctrl medium or L-Arg medium, respectively. Equal numbers of the congenically marked activated OT-I cells were co-transferred into Cd3e−/− mouse and the number of living T cells was measured in pooled spleen and lymph nodes at the indicated time points; n=3 at each time point. (C) Naïve CD8+ OT-I T cells were activated with CD3+CD28 antibodies in L-Arg medium or control (Ctrl) medium. Five days after activation, the percentage of Tcm-like cells (CD44hi, CD62L+) was measured by flow cytometry; n=15. (D) Naïve OT-I CD8+ T cells were activated in L-Arg medium or Ctrl medium and IFN-γ was quantified in culture supernatants after 5 days; n=15. (E) Same as in (D) but T cells were re-activated on day 5 day with PMA/Ionomycin; n=15. (F, G) B16.OVA melanoma cells were injected into C57BL/6 mice and tumors were allowed to grow for 10 days. Naïve OT-I CD8+ T cells were activated in vitro in L-Arg medium or Ctrl medium and injected into tumor bearing mice. Tumor burden (F) and survival (G) were assessed over time. Data are representative of three independent experiments, each performed with 7-9 mice per group. (H) B16.OVA melanoma cells were injected into C57BL/6 mice and tumors were allowed to grow for 6 clays. At day 6, naïve CD8+ OT-I T cells were transferred into tumor bearing mice and at day 7 mice were immunized with OVA peptide. Starting one day before the T cell transfer, PBS or L-arginine (1.5 mg/g body weight) was orally administered daily; n=19 from three independent experiments. Bars represent the s.e.m. *p<0.05, **p<0.01, ***p<0.001, ****p<0.0001 (Student's t-test). In (G) *p<0.05 as determined by log-rank test comparison between curves. […]

Experiment [2] has as its system human naïve CD4+ T cells. The experiment can be described thus: T cell proliferation (CellTrace Violet dilution). The class given is cell-based. On the procedure:
FIG. 10. […] (A) Kinetics of T cell proliferation. Human naïve CD4+ T cells were labeled with CellTraceViolet (CTV) and activated in Ctrl medium or in L-Arg medium or in medium supplemented with 3 mM D-arginine or 3 mM L-arginine together with 3 mM L-lysine. Cell divisions were monitored at 48 h and 72 h by flow cytometry. (B) CTV-labeled CD4+ T cells were activated in normal medium or L-Arg medium and the dilution of CTV was measured over time by flow cytometry. n=5 from two donors. (C) 3H-L-arginine uptake by 3 day-activated CD4+ T cells during a 15 minutes pulse. Where indicated, 3 mM L-arginine, D-arginine or L-lysine was added to the culture medium as a competitive uptake inhibitor. n=7 for control, n=9 for L-Arg, n=5 for D-Arg, and n=9 for L-Lys. Bars represent the s.e.m.

Experiment [3] has as its system natural killer cells. The note with it: oral administration, healthy volunteers; cited from earlier work.
The test system of experiment [4] is activated CD8+ T cells. Briefly: IL-2 withdrawal assay and assessment of cell viability, CD8+ T cells. It is filed as cell-based, human. The note with it: L-arginine supplementation, 5 days after IL-2 withdrawal.
The test system of experiment [5] is human naïve CD4+ T cells. The experiment can be described thus: Cytokine analysis (IFN-gamma). The class given is cell-based. The method, then:
10^5 naïve T cells were stimulated with plate bound anti-CD3 (5 μg ml^−1) and anti-CD28 (1 μg ml^−1) in the presence of IL-12 (10 ng/ml, R&D Systems) to polarize cells towards a Th1 phenotype. After 48 h, cells were transferred into U-bottom plates and IL-2 (10 ng/ml, R&D Systems) was added. Three days later, supernatants were collected and interferon-γ was quantified using FlowCytomix assays (eBioscience). Samples were analyzed on a BD LSR Fortessa FACS instrument and quantification was performed with the FlowCytomix Pro 3.0 software. For re-stimulation, cells were cultured for 5 h in the presence of 0.2 μM phorbol 12-myristate 13-acetate (PMA) and 1 μg/ml ionomycin (both from Sigma).

On to `N=C(N)NCCC[C@H](N)C(=O)O` [L-arginine], for which the “Tcm-like state (CD44hi, CD62L+)” value in experiment [1] (five days after activation in L-Arg medium) was “maintained a Tcm-like state”. Also, in experiment [1] (re-activated on day 5 with PMA/Ionomycin), the “IFN-γ production upon reactivation” value is “even more IFN-γ than controls”. The “IFN-γ secretion after in vitro priming” value in experiment [1] (supernatants after 5 days) is “secreted less IFN-γ than controls”. Further, in experiment [2] (3 mM in medium), the onset of proliferation entry was “slightly delayed onset”. Besides, the “doubling rates once proliferation started” value in experiment [2] (L-arginine-supplemented medium) is listed as “comparable to controls”. The “numbers and activity of natural killer cells” value in experiment [3] is “enhance the numbers and activity of natural killer cells”. Besides, the “survival of activated CD8+ T cells in the absence of exogenous cytokines” value in experiment [4] was “significantly increased”. In experiment [5] (L-arginine-supplemented medium, 10 ng/ml IL-12, supernatants after 5 days), the IFN-gamma secretion entry is “much less”. The “IFN-gamma secretion after re-activation” value in experiment [5] (re-activation for 5 h with PMA/Ionomycin) is given as “comparable amounts”.
